Laboratory results as given in US12168012B2, “NLRP3 inflammasome inhibitors” (Novartis AG, priority 2018, dated 2024).
pIC50: −log10 of the molar value. Counter-ions that a name gives are not always drawn.

What was measured:
NLRP3 inflammasome = test: IL-1β secretion assay; format: cell-based; settings: Homo sapiens, THP-1, 3 h, PMA-differentiated THP-1 cells, 15 μM nigericin, HTRF
Method: 10 μL supernatant was removed, and IL-1p levels were monitored using an HTRF assay (CisBio, #62IL1PEC) according to manufacturers' instructions. Viability and pyroptosis was monitored with the addition of PrestoBlue cell viability reagent (Life Technologies, #A13261) directly to the cell culture plate.
(§1) IC50 values were calculated from the plot of percentage of inhibition versus the inhibitor concentration by a logistics fit according to: y=A2+(A1−A2)/(1+(x/IC50)^p) where y is the %-inhibition at the inhibitor concentration, x. A1 is the lowest inhibition value, i.e. 0%, and A2 the maximum inhibition value, i.e. 100%. The exponent, p, is the Hill coefficient. The curve fitting was conducted with an internally developed software suite.
NLRP3-dependent IL-1β secretion was stimulated in PMA-differentiated THP-1 cells by the addition of nigericin, and cytokines were measured in the […] after 3 hours. As discussed above, activation of the NLRP3 inflammasome requires both an NF-kB-dependent priming step and the addition of a NLRP3 activator.

[1] = test system: NF-kB-dependent TNF-α secretion; test: TNF-α secretion assay (counterscreen); format: cell-based; settings: Homo sapiens; THP-1 cells, Pam3CSK4-stimulated, 3 hours, HTRF
Method: Monocytic THP-1 cells were maintained according to providers' instructions in RPMI media as described above. Undifferentiated cells were plated at 50,000 cells per well in a 384-well flat-bottom cell culture plates (Greiner, #781986), and allowed to rest overnight. Experimental compounds were prepared and added as described above. TNF-α secretion was triggered by the addition of either 1 μg/mL LPS (Sigma, #L4391) or 100 ng/mL Pam3CSK4 (Invivogen, #tlrl-pms) depending on the experiment, and cells were incubated for 3 hours. 10 μL supernatant was removed, and TNF-α levels were monitored using an HTRF assay (CisBio, #62TNFPEC) according to manufacturers' instructions. Viability was monitored as described above.
as §1, with “suite. […]” for “suite.”

Structure (SMILES) | pIC50 (NLRP3 inflammasome) | pIC50 [1]
CC(C)(O)c1nn(CC(=O)Nc2ccncn2)c(=O)c2cc3sc(Cl)cc3n12 [Ex 9, 2-(2-Chloro-5-(2-hydroxypropan-2-yl)-8-oxothieno[2′,3′:4,5]pyrrolo[1,2-d][1,2,4]triazin-7(8H)-yl)-N-(pyrimidin-4-yl)acetamide] | 8.10 | < 4.00
CC(C)c1nn(CC(=O)N[C@H]2CCC[C@@H](C(=O)O)C2)c(=O)c2cc3sc(Cl)cc3n12 [Ex 55, (1R,3S)-3-(2-(2-Chloro-5-isopropyl-8-oxothieno[2′,3′:4,5]pyrrolo[1,2-d][1,2,4]triazin-7(8H)-yl)acetamido)cyclohexane-1-carboxylic acid] | 6.07 | < 4.00
O=C(Cn1nc(C2CC2)n2c(cc3sc(Cl)cc32)c1=O)N[C@@H]1CCCNC1 [Ex 36, (R)-2-(2-Chloro-5-cyclopropyl-8-oxothieno[2′,3′:4,5]pyrrolo[1,2-d][1,2,4]triazin-7(8H)-yl)-N-(piperidin-3-yl)acetamide hydrochloride] | 6.96 | < 4.00
CC(C)c1nn(CC(=O)N[C@@H]2CCCNC2)c(=O)c2cc3sc(Cl)cc3n12 [Ex 10, (R)-2-(2-Chloro-5-isopropyl-8-oxothieno[2′,3′:4,5]pyrrolo[1,2-d][1,2,4]triazin-7(8H)-yl)-N-(piperidin-3-yl)acetamide] |  | < 4.00
CC(C)(O)c1nn(CC(=O)N[C@@H]2CCCN(CC(F)(F)F)C2)c(=O)c2cc3sc(Cl)cc3n12 [Ex 82, (R)-2-(2-Chloro-5-(2-hydroxypropan-2-yl)-8-oxothieno[2′,3′:4,5]pyrrolo[1,2-d][1,2,4]triazin-7(8H)-yl)-N-(1-(2,2,2-trifluoroethyl)piperidin-3-yl)acetamide] | 7.37 | < 4.00
CC(C)c1nn(CC(=O)N[C@@H]2CCCN(C)C2)c(=O)c2cc3scnc3n12 [Ex 48, (R)-2-(5-Isopropyl-8-oxothiazolo[5′,4′:4,5]pyrrolo[1,2-d][1,2,4]triazin-7(8H)-yl)-N-(1-methylpiperidin-3-yl)acetamide] |  | < 4.00
CC(C)c1nn(CC(=O)N[C@@H]2CCCN(C)C2)c(=O)c2cc3sc(Cl)cc3n12 [Ex 17, (R)-2-(2-Chloro-5-isopropyl-8-oxothieno[2′,3′:4,5]pyrrolo[1,2-d][1,2,4]triazin-7(8H)-yl)-N-(1-methylpiperidin-3-yl)acetamide] |  | < 4.00
CC(C)c1nn(CC(=O)NC2CCOCC2)c(=O)c2cc3sc(Cl)cc3n12 [Ex 75, 2-(2-Chloro-5-isopropyl-8-oxothieno[2′,3′:4,5]pyrrolo[1,2-d][1,2,4]triazin-7(8H)-yl)-N-(tetrahydro-2H-pyran-4-yl)acetamide] |  | < 4.00
CC(C)c1nn(CC(=O)Nc2cccnc2)c(=O)c2cc3sc(Cl)cc3n12 [Ex 2, 2-(2-Chloro-5-isopropyl-8-oxothieno[2′,3′:4,5]pyrrolo[1,2-d][1,2,4]triazin-7(8H)-yl)-N-(pyridin-3-yl)acetamide] |  | < 4.00
CC(C)c1nn(CC(=O)N[C@@H]2CCCN(C3CCC3)C2)c(=O)c2cc3sc(Cl)cc3n12 [Ex 125, (R)-2-(2-Chloro-5-isopropyl-8-oxothieno[2′,3′:4,5]pyrrolo[1,2-d][1,2,4]triazin-7(8H)-yl)-N-(1-cyclobutylpiperidin-3-yl)acetamide] |  | < 4.48
CN1CCC[C@@H](NC(=O)Cn2nc(C(C)(C)O)n3c(cc4sc(Cl)cc43)c2=O)C1 [Ex 60, (R)-2-(2-Chloro-5-(2-hydroxypropan-2-yl)-8-oxothieno[2′,3′:4,5]pyrrolo[1,2-d][1,2,4]triazin-7(8H)-yl)-N-(1-methylpiperidin-3-yl)acetamide] |  | < 4.00
CC(C)c1nn(CC(=O)Nc2cccnc2)c(=O)c2cc3sc(F)cc3n12 [Ex 5, 2-(2-Fluoro-5-isopropyl-8-oxothieno[2,3′:4,5]pyrrolo[1,2-d][1,2,4]triazin-7(8H)-yl)-N-(pyridin-3-yl)acetamide] |  | < 4.00
CC(C)c1nn(CC(=O)N[C@H]2CCCN(C)C2)c(=O)c2cc3sc(Cl)cc3n12 [Ex 18, (S)-2-(2-Chloro-5-isopropyl-8-oxothieno[2′,3′:4,5]pyrrolo[1,2-d][1,2,4]triazin-7(8H)-yl)-N-(1-methylpiperidin-3-yl)acetamide] |  | < 4.00
CC(C)c1nn(CC(=O)NC23CC(C(=O)O)(C2)C3)c(=O)c2cc3sc(Cl)cc3n12 [Ex 123, 3-(2-(2-Chloro-5-isopropyl-8-oxothieno[2′,3′:4,5]pyrrolo[1,2-d][1,2,4]triazin-7(8H)-yl)acetamido)bicyclo[1.1.1]pentane-1-carboxylic acid] | 5.68 | 
CC(C)c1nn(CC(=O)N[C@H]2C[C@](C)(O)C2)c(=O)c2cc3sc(F)cc3n12 [Ex 86, 2-(2-Fluoro-5-isopropyl-8-oxothieno[2′,3′:4,5]pyrrolo[1,2-d][1,2,4]triazin-7(8H)-yl)-N-((1r,3r)-3-hydroxy-3-methylcyclobutyl)acetamide] | 7.39 | 
CC(C)(O)c1nn(CC(=O)N[C@H]2CC[C@H](C(=O)O)CC2)c(=O)c2cc3sc(Cl)cc3n12 [Ex 122, (1r,4r)-4-(2-(2-Chloro-5-(2-hydroxypropan-2-yl)-8-oxothieno[2′,3′:4,5]pyrrolo[1,2-d][1,2,4]triazin-7(8H)-yl)acetamido)cyclohexane-1-carboxylic acid] | 6.57 | 
CC(C)c1nn(CC(=O)N[C@]2(C)C[C@@H](O)C2)c(=O)c2cc3sc(Cl)cc3n12 [Ex 23, 2-(2-Chloro-5-isopropyl-8-oxothieno[2′,3′:4,5]pyrrolo[1,2-d][1,2,4]triazin-7(8H)-yl)-N-((1r,3r)-3-hydroxy-1-methylcyclobutyl)acetamide] | 6.34 | 
CC(C)c1nn(CC(=O)NCCC(C)(C)O)c(=O)c2cc3scnc3n12 [Ex 94, N-(3-Hydroxy-3-methylbutyl)-2-(5-isopropyl-8-oxothiazolo[5′,4′:4,5]pyrrolo[1,2-d][1,2,4]triazin-7(8H)-yl)acetamide] | 7.19 | 
CC(C)(O)c1nn(CC(=O)N[C@@H]2CCNC2)c(=O)c2cc3sc(Cl)cc3n12 [Ex 106, (R)-2-(2-Chloro-5-(2-hydroxypropan-2-yl)-8-oxothieno[2′,3′:4,5]pyrrolo[1,2-d][1,2,4]triazin-7(8H)-yl)-N-(pyrrolidin-3-yl)acetamide] | 5.66 | 
CC(C)c1nn(CC(=O)NC2CC3(CC(O)C3)C2)c(=O)c2cc3sc(Cl)cc3n12 (centres unmarked) [Ex 73, 2-(2-Chloro-5-isopropyl-8-oxothieno[2′,3′:4,5]pyrrolo[1,2-d][1,2,4]triazin-7(8H)-yl)-N-(6-hydroxyspiro[3.3]heptan-2-yl)acetamide] | 7.84 | 
CC(C)(O)CCNC(=O)Cn1nc(C(C)(C)O)n2c(cc3sc(Cl)cc32)c1=O [Ex 80] | 7.22 | 
CC(C)c1nn(CC(=O)Nc2ncncc2F)c(=O)c2cc3sc(Cl)cc3n12 [Ex 15, 2-(2-Chloro-5-isopropyl-8-oxothieno[2′,3′:4,5]pyrrolo[1,2-d][1,2,4]triazin-7(8H)-yl)-N-(5-fluoropyrimidin-4-yl)acetamide] | 8.27 | 
CC(C)c1nn(CC(=O)NC2CCCC2)c(=O)c2cc3scnc3n12 [Ex 98, N-Cyclopentyl-2-(5-isopropyl-8-oxothiazolo[5′,4′:4,5]pyrrolo[1,2-d][1,2,4]triazin-7(8H)-yl)acetamide] | 6.57 | 
CC(C)(O)c1nn(CC(=O)Nc2ccc3cn[nH]c3c2)c(=O)c2cc3sc(Cl)cc3n12 [Ex 65, 2-(2-Chloro-5-(2-hydroxypropan-2-yl)-8-oxothieno[2′,3′:4,5]pyrrolo[1,2-d][1,2,4]triazin-7(8H)-yl)-N-(1H-indazol-6-yl)acetamide] | 8.21 | 
CC(C)c1nn(CC(=O)N[C@@H]2CCN(C)C2)c(=O)c2cc3sc(Cl)cc3n12 [Ex 104, (R)-2-(2-Chloro-5-isopropyl-8-oxothieno[2′,3′:4,5]pyrrolo[1,2-d][1,2,4]triazin-7(8H)-yl)-N-(1-methylpyrrolidin-3-yl)acetamide] | 6.59 | 
CC(C)c1nn(CC(=O)N[C@H]2CC[C@H](C(=O)O)CC2)c(=O)c2cc3scnc3n12 [Ex 119, (1r,4r)-4-(2-(5-Isopropyl-8-oxothiazolo[5′,4′:4,5]pyrrolo[1,2-d][1,2,4]triazin-7(8H)-yl)acetamido)cyclohexane-1-carboxylic acid] | 7.39 | 
CC(C)c1nn(CC(=O)Nc2cc(C(F)F)ncn2)c(=O)c2cc3sc(Cl)cc3n12 [Ex 112, 2-(2-Chloro-5-isopropyl-8-oxothieno[2′,3′:4,5]pyrrolo[1,2-d][1,2,4]triazin-7(8H)-yl)-N-(6-(difluoromethyl)pyrimidin-4-yl)acetamide] | 6.60 | 
CC(C)(O)c1nn(CC(=O)N[C@H]2CCNC2)c(=O)c2cc3sc(Cl)cc3n12 [Ex 107, (S)-2-(2-Chloro-5-(2-hydroxypropan-2-yl)-8-oxothieno[2′,3′:4,5]pyrrolo[1,2-d][1,2,4]triazin-7(8H)-yl)-N-(pyrrolidin-3-yl)acetamide] | 5.36 | 
